According to patent US10941157B2, “Pesticidal compositions and uses thereof” (Gilead Apollo, LLC, priority 2015, dated 2021):
Converted amounts (≈) assume the structure as drawn. Where two headings read alike, the source gives them in different places.

Key:
Format in all cases: cell-based
[1] = tested on: Collectotrichum graminicola (Cg); test: In vitro pathogen growth inhibition assay, Cg; conditions: 48 h
Summary of the method: (§1)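 Spores in 17% V8 liquid medium, or 1.5 mm Rs mycelial plugs in ¼ PDB, incubated with compound; final concentration checked by OD600 for precipitation. OD readings at 24 and 48 h, blank-subtracted, plus visual ratings; value is concentration giving ≥90% growth inhibition.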

[2] = tested on: Phytophthora capsici (Pc); test: In vitro pathogen growth inhibition assay, Pc; conditions: 48 h
Summary of the method: as §1

[3] = tested on: Fusarium moniliforme (Fm); test: In vitro pathogen growth inhibition assay, Fm; conditions: Fusarium verticillioides
Summary of the method: as §1

Rhizoctonia solani (Rs) = test: In vitro pathogen growth inhibition assay, Rs (mycelial plugs); conditions: Rhizoctonia solani, 48 h, mycelial plugs
Summary of the method: as §1

Septoria tritici (St) = test: In vitro pathogen growth inhibition assay, St; conditions: Zymoseptoria tritici, 48 h
Summary of the method: as §1

Botrtyis cinerea (Bc) = test: In vitro pathogen growth inhibition assay, Bc; conditions: 48 h
Summary of the method: as §1

[4] = tested on: Saccharomyces cerevisiae (Sc); test: Yeast growth inhibition assay; conditions: for IC75: Saccharomyces cerevisiae, ≥75% inhibition, read-out: Compound Concentration (ppm) sufficient for ≥75% inhibition, Sc
Protocol: Both tables list the concentration of each compound that was sufficient to ≥90% inhibition of growth for each of the fungal pathogens listed above. In addition, some of compounds were tested in a yeast growth inhibition assay for Saccharomyces cerevisiae (Sc). Table 2 lists the concentration of the tested compound that was sufficient to ≥75% inhibition of Saccharomyces cerevisiae (Sc).

[5] = tested on: Fusarium virguliforme (Fv); test: In vitro pathogen growth inhibition assay, Fv
Summary of the method: as §1

Diplodia maydis (Dm) = test: In vitro pathogen growth inhibition assay, Dm; conditions: Stenocarpella maydis, 48 h
Summary of the method: as §1

[6] = ≥90% growth inhibition, 48 hours, vs 2% DMSO control, read-out: Compound Concentration (ppm) sufficient for ≥90% inhibition of Cg
[7] = ≥90% growth inhibition, 48 hours, vs 2% DMSO control, read-out: Compound Concentration (ppm) sufficient for ≥90% inhibition of Pc
[8] = ≥90% growth inhibition, 48 hours, vs 2% DMSO control, read-out: Compound Concentration (ppm) sufficient for ≥90% inhibition of Fm
[9] = ≥90% growth inhibition, 48 hours, vs 2% DMSO control, read-out: Compound Concentration (ppm) sufficient for ≥90% inhibition of Rs
[10] = ≥90% growth inhibition, 48 hours, vs 2% DMSO control, read-out: Compound Concentration (ppm) sufficient for ≥90% inhibition of St
[11] = ≥90% growth inhibition, 48 hours, vs 2% DMSO control, read-out: Compound Concentration (ppm) sufficient for ≥90% inhibition of Bc
[12] = ≥90% growth inhibition, 48 hours, vs 2% DMSO control, read-out: Compound Concentration (ppm) sufficient for ≥90% inhibition of Fv
[13] = ≥90% growth inhibition, 48 hours, vs 2% DMSO control, read-out: Compound Concentration (ppm) sufficient for ≥90% inhibition of Dm
[14] = ≥90% inhibition, 48 hours vs 2% DMSO control, read-out: Compound Concentration (ppm) sufficient for ≥90% inhibition of growth, Cg
[15] = ≥90% inhibition, 48 hours vs 2% DMSO control, read-out: Compound Concentration (ppm) sufficient for ≥90% inhibition of growth, Pc
[16] = ≥90% inhibition, 48 hours vs 2% DMSO control, read-out: Compound Concentration (ppm) sufficient for ≥90% inhibition of growth, Fm
[17] = ≥90% inhibition, 48 hours vs 2% DMSO control, read-out: Compound Concentration (ppm) sufficient for ≥90% inhibition of growth, Rs
[18] = ≥90% inhibition, 48 hours vs 2% DMSO control, read-out: Compound Concentration (ppm) sufficient for ≥90% inhibition of growth, St
[19] = ≥90% inhibition, 48 hours vs 2% DMSO control, read-out: Compound Concentration (ppm) sufficient for ≥90% inhibition of growth, Bc
[20] = ≥90% inhibition, 48 hours vs 2% DMSO control, read-out: Compound Concentration (ppm) sufficient for ≥90% inhibition of growth, Fv
[21] = ≥90% inhibition, 48 hours vs 2% DMSO control, read-out: Compound Concentration (ppm) sufficient for ≥90% inhibition of growth, Dm

## CCOC(=O)c1sc2c(c1C)c(=O)n(C(C)(C)C(=O)N1CCCCC1)c(=O)n2C[C@H](OC1CCOCC1)c1ccccc1OC [Compound I-168]
[1]; [6]
  IC90: 0.4 µg/mL (≈ 0.623 µM)
[2]; [7]
  IC90: > 50 µg/mL
[3]; [8]
  IC90: ≥ 0.4 µg/mL
Rhizoctonia solani (Rs); [9]
  IC90: 2 µg/mL (≈ 3.12 µM)
Septoria tritici (St); [10]
  IC90: ≥ 10 µg/mL
Botrtyis cinerea (Bc); [11]
  IC90: 0.4 µg/mL (≈ 0.623 µM)
[4]
  Compound Concentration (ppm) sufficient for ≥75% inhibition of Sc: 1.2 ppm
[5]; [12]
  IC90: ≥ 0.4 µg/mL
Diplodia maydis (Dm); [13]
  IC90: 2 µg/mL (≈ 3.12 µM)

## COc1ccccc1[C@H](Cn1c(=O)n(C(C)(C)C(=O)N2CCOCC2)c(=O)c2c(C)c(-c3ncco3)sc21)OC1CCOCC1 [Compound I-152]
[1]; [14]
  IC90: 50 µg/mL (≈ 78.3 µM)
[2]; [15]
  IC90: > 50 µg/mL
[3]; [16]
  IC90: 2 µg/mL (≈ 3.13 µM)
Rhizoctonia solani (Rs); [17]
  IC90: > 50 µg/mL
Septoria tritici (St); [18]
  IC90: > 50 µg/mL
Botrtyis cinerea (Bc); [19]
  IC90: 10 µg/mL (≈ 15.7 µM)
[4]
  IC75: > 33 µg/mL
[5]; [20]
  IC90: > 50 µg/mL
Diplodia maydis (Dm); [21]
  IC90: 50 µg/mL (≈ 78.3 µM)

## COc1ccc(F)cc1[C@H](Cn1c(=O)n(C(C)(C)C(N)=O)c(=O)c2c(C)c(-c3ncco3)sc21)OC1CCOCC1 [Compound I-101]
[1]; [14]
  IC90: 10 µg/mL (≈ 17 µM)
[2]; [15]
  IC90: 50 µg/mL (≈ 85.2 µM)
[3]; [16]
  IC90: 0.4 µg/mL (≈ 0.682 µM)
Rhizoctonia solani (Rs); [17]
  IC90: 50 µg/mL (≈ 85.2 µM)
Septoria tritici (St); [18]
  IC90: > 50 µg/mL
Botrtyis cinerea (Bc); [19]
  IC90: 10 µg/mL (≈ 17 µM)
[4]
  IC75: 3.7 µg/mL (≈ 6.31 µM)
[5]; [20]
  IC90: 10 µg/mL (≈ 17 µM)
Diplodia maydis (Dm); [21]
  IC90: 10 µg/mL (≈ 17 µM)

## COc1ccccc1[C@H](Cn1c(=O)n(C(C)(C)C(=O)NC(C)C)c(=O)c2c(C)c(-c3ncco3)sc21)OC1CCOCC1 [Compound I-011]
[1]; [14]
  IC90: 2 µg/mL (≈ 3.27 µM)
[2]; [15]
  IC90: > 50 µg/mL
[3]; [16]
  IC90: 0.08 µg/mL (≈ 0.131 µM)
Rhizoctonia solani (Rs); [17]
  IC90: 10 µg/mL (≈ 16.4 µM)
Septoria tritici (St); [18]
  IC90: 50 µg/mL (≈ 81.9 µM)
Botrtyis cinerea (Bc); [19]
  IC90: 0.4 µg/mL (≈ 0.655 µM)
[4]
  IC75: 1.2 µg/mL (≈ 1.96 µM)
[5]; [20]
  IC90: 2 µg/mL (≈ 3.27 µM)
Diplodia maydis (Dm); [21]
  IC90: 2 µg/mL (≈ 3.27 µM)

## COc1ccccc1[C@H](Cn1c(=O)n(C(C)(C)C(=O)N2CCCCC2)c(=O)c2c(C)c(-c3ncco3)sc21)OC1CCC(=O)CC1 [Compound I-106]
[1]; [14]
  IC90: 10 µg/mL (≈ 15.4 µM)
[2]; [15]
  IC90: > 50 µg/mL
[3]; [16]
  IC90: 0.4 µg/mL (≈ 0.617 µM)
Rhizoctonia solani (Rs); [17]
  IC90: 50 µg/mL (≈ 77.1 µM)
Septoria tritici (St); [18]
  IC90: > 50 µg/mL
Botrtyis cinerea (Bc); [19]
  IC90: 2 µg/mL (≈ 3.08 µM)
[4]
  IC75: 33.3 µg/mL (≈ 51.3 µM)
[5]; [20]
  IC90: 2 µg/mL (≈ 3.08 µM)
Diplodia maydis (Dm); [21]
  IC90: 2 µg/mL (≈ 3.08 µM)

## CCNC(=O)C(C)(C)n1c(=O)c2c(C)c(-c3ncco3)sc2n(C[C@H](OC2CCOCC2)c2ccccc2OC)c1=O [Compound I-169]
[1]; [6]
  IC90: 50 µg/mL (≈ 83.8 µM)
[2]; [7]
  IC90: > 50 µg/mL
[3]; [8]
  IC90: ≥ 0.4 µg/mL
Rhizoctonia solani (Rs); [9]
  IC90: > 50 µg/mL
Septoria tritici (St); [10]
  IC90: > 50 µg/mL
Botrtyis cinerea (Bc); [11]
  IC90: 10 µg/mL (≈ 16.8 µM)
[4]
  Compound Concentration (ppm) sufficient for ≥75% inhibition of Sc: 11.0 ppm
[5]; [12]
  IC90: 50 µg/mL (≈ 83.8 µM)
Diplodia maydis (Dm); [13]
  IC90: ≥ 10 µg/mL
